Assay results reported in US4020076A, “Novel phosphoryloxy-thiazoles” (priority 1974, dated 1977).
Where two headings read alike, the source gives them in different places.

Legend:
Type in all cases: in vivo
Drosophila melanogaster = experiment: Vapor activity against Drosophila melanogaster; conditions: inhaled or nasal, read-out: percentage of mortality
Description: a. Activity against Drosophila melanogaster
This test measures the vapor activity of the compounds and the less than 48 hours old insects were placed in a Petri dish with a 10 cm diameter connected by a tergal screen to a crystallizer of the same diameter in which the test compound in acetone solution is placed. The said solution is evaporated after the insects have been placed and 3 tests with 25 insects were run for each concentration. The results are expressed in Table I as a percentage of mortality after 1, 2, 4 and 6 hours.

Spodoptera littoralis = experiment: Ingestion test against Spodoptera littoralis caterpillars; conditions: po, ingestion, read-out: percent of mortality
Description: e. Activity against Spodoptera littoralis
This test was effected with Spodoptera littoralis caterpillars 1 to 1.5 cm long and an average of 10 days old. In this ingestion test, 4 ml of an acetone solution of the test products was placed on lettuce rings with an 8 mm diameter which were placed in closed plastic dishes with a 5 cm diameter. 15 caterpillars were placed in each dish and were held at 20° C and 50% relative humidity and were fed when the insects had eaten the treated lettuce ring.

Meloidogynes spec = experiment: Nematocidal activity against Meloidogynes spec (tomato root galls); conditions: 250 Kg/ha
Description: a. Activity against Meloidogynes spec
A volume of about 3 liters of dirt infested with Meloidogynes spec was placed in a plastic sack. Nematocidal treatments are considered effective to a depth of 30 cm, a volume of 3 liters of dirt corresponding to a surface area of 100 cm^ 2 or 10^-^6 ha (since 100 cm^ 2 × 30 cm = 3000 ml or 3 liters). Each volume of infested dirt received 100 ml of an aqueous suspension containing 0.250 g of the test product (corresponding to 250 Kg/ha) and the controls received only 100 ml of water. The plastic sacks containing the dirt were immediately sealed after the treatment and then agitated to obtain a good distribution of the product. Two weeks after the treatment, the sacks were opened and the dirt was used to plant 3 tomato plants of St. Pierre variety. The plants used were raised in the greenhouse with dirt sterilized with heat to obtain plants free of nematodes. Three plants were used for each test which was run 6 times for each treatment. Two months after planting the tomatoes were removed from the dirt and the efficacy was determined by counting the number of galls observed on the roots. A correlation between the population of Meloidogynes in the pot and the number of galls exists.

Aedes aegypti larvae = experiment: Activity against Aedes aegypti larvae; conditions: for mortality at 0.25 µg/mL: 0.25 mg/l (10^-3 ppm); for mortality at 2.5 µg/mL: 2.5 mg/l (10^-2 ppm); for mortality at 25 µg/mL: 25 mg/l
Description: f. Activity against Aedes aegypti larvae
10 Aedes aegypti larvae in the IV stage in 49 ml of water were added to 200 ml of water and 1 ml of an acetone solution of the test product was added thereto.

[1] = test system: Ditylenchus Myceliophagus; experiment: Acaricide activity, Ditylenchus Myceliophagus; conditions: 24 h, 0.1 g/l, read-out: Percent of mortality after 24 hours
Description: In an apparatus containing 10 ml of an aqueous solution of the test product, 0.5 ml of water containing about 2000 acariens of Ditylenchus Myceliophagus were added thereto and the percent of mortality was determined by a binocular magnifying glass after 24 hours.

Sitophilus granarius = experiment: Topical application test against Sitophilus granarius; conditions: read-out: percent mortality
Description: c. Test against Sitophilus granarius
This topical application test comprised preparing the test compounds in acetone solution at concentrations of 5000, 500 and 50 mg of the active compound per liter and 0.2 μl of the solutions were applied to the ventral thorax of 50 Sitophilus granarius for each concentration.

Musca domestica larvae = experiment: Contact-ingestion test against Musca domestica larvae; conditions: read-out: percent of mortality
Description: g. Activity against Musca domestica larvae
This contact-ingestion test consisted of placing 2 ml of an acetone solution of different concentrations of the test product on 1 g of bran placed in a watch glass and the solvent was evaporated. The treated bran was placed in a plastic dish and was admixed with 2 ml of milk. 20 3 to 4 day old larvae of Musca domestica were added to the bran and were held at 20° C and 30% relative humidity and 3 tests were conducted for each concentration.

Musca domestica = experiment: Topical application activity against Musca domestica; conditions: read-out: percent of mortality
Description: d. Activity against Musca domestica
This topical application test consisted of placing a microliter of an acetone solution of the test product on the dorsal thorax of Musca domestica after having been put to sleep with ether. The insects were held at 20° C and 50% relative humidity and were fed milk and water.

[2] = test system: Leptinotarsa Decemlineata; experiment: Activity against Leptinotarsa Decemlineata larvae; conditions: for mortality at 500 µg/mL: 50 g/hl; for mortality at 1000 µg/mL: 100 g/hl
Description: h. Activity againt Leptinotarsa Decemlineata
Eggplant leaves with about 40 cm^ 2 of surface area (10 × 4 cm) were cut out of untreated plants and were washed with water and dried before being immersed for 10 seconds in an acetone solution of the test product. After drying, the leaves were placed in a plastic ventilated dish and 10 larvae of Leptinotarsa Decemlineata in the fourth stage were placed thereon.

[3] = 24 h, read-out: % of mortality after 24 H
[4] = 48 h, read-out: % of mortality after 48 H
[5] = 1 h, read-out: % of mortality after 1 H

In the case of CCOc1nc(OP(=S)(OC)OC)c(C#N)s1 [Compound C, 2-ethoxy-4-dimethoxythiophosphoryloxy-5-cyano-thiazole], the mortality at 5 ppm (Drosophila melanogaster; 1 H) is reported as 98%, the mortality at 50 ppm (Drosophila melanogaster; 1 H) is reported as 100% and the mortality at 500 ppm (Drosophila melanogaster; 1 H) is reported as 100%. For the same compound, the mortality at 5 ppm (Drosophila melanogaster; 4 H) was 100%, the mortality at 50 ppm (Drosophila melanogaster; 4 H) was 100% and the mortality at 500 ppm (Drosophila melanogaster; 4 H) was 100%. The mortality at 5 ppm (Drosophila melanogaster; 6 H) was 100%, the mortality at 50 ppm (Drosophila melanogaster; 6 H) was 100% and the mortality at 500 ppm (Drosophila melanogaster; 6 H) was 100%. For the same compound, the mortality at 125 ppm (Spodoptera littoralis; 1 H) was 0%, the mortality at 250 ppm (Spodoptera littoralis; 1 H) was 0% and the mortality at 500 ppm (Spodoptera littoralis; 1 H) was 0%. It also gave a mortality at 125 ppm (Spodoptera littoralis; 24 H) of 70%, a mortality at 250 ppm (Spodoptera littoralis; 24 H) of 80% and a mortality at 500 ppm (Spodoptera littoralis; 24 H) of 100%. The mortality at 125 ppm (Spodoptera littoralis; 48 H) was 70%, the mortality at 250 ppm (Spodoptera littoralis; 48 H) was 80% and the mortality at 500 ppm (Spodoptera littoralis; 48 H) was 100%. For the same compound, the “Relative efficacity in % as compound to controls” value (Meloidogynes spec) was 67.4%, the “Number of galls per foot” value (Meloidogynes spec; control 44.4) was 32.77 and the “Total number of galls” value (Meloidogynes spec; control 222) was 295. For the same compound, the mortality at 0.25 µg/mL (Aedes aegypti larvae; [3]) was 0%, the mortality at 2.5 µg/mL (Aedes aegypti larvae; [3]) was 0% and the mortality at 25 µg/mL (Aedes aegypti larvae; [3]) was 100%. For the same compound, the mortality at 0.25 µg/mL (Aedes aegypti larvae; [4]) was 0%, the mortality at 2.5 µg/mL (Aedes aegypti larvae; [4]) was 0% and the mortality at 25 µg/mL (Aedes aegypti larvae; [4]) was 100%. For the same compound, the mortality at 100 µg/mL [1] was 66.8%, the mortality at 50 ppm (Sitophilus granarius; 4 H) was 0% and the mortality at 500 ppm (Sitophilus granarius; 4 H) was 0%. For the same compound, the mortality at 5000 ppm (Sitophilus granarius; 4 H) was 100%, the mortality at 50 ppm (Sitophilus granarius; 24 H) was 0% and the mortality at 500 ppm (Sitophilus granarius; 24 H) was 54%. It also gave a mortality at 5000 ppm (Sitophilus granarius; 24 H) of 100%, a mortality at 50 ppm (Sitophilus granarius; 120 h, 5 Days) of 0% and a mortality at 500 ppm (Sitophilus granarius; 120 h, 5 Days) of 96%. The mortality at 5000 ppm (Sitophilus granarius; 120 h, 5 Days) was 100%, the mortality at 500 ppm (Musca domestica larvae; 48 H) was 43% and the mortality at 5000 ppm (Musca domestica larvae; 48 H) was 53%. For the same compound, the mortality at 500 ppm (Musca domestica larvae; 192 h, 8 Days) was 63%, the mortality at 5000 ppm (Musca domestica larvae; 192 h, 8 Days) was 73% and the mortality at 500 ppm (Musca domestica; 1 H, 500 ppm) was 100%. It also gave a mortality at 2500 ppm (Musca domestica; 1 H, 2500 ppm) of 100%, a mortality at 5000 ppm (Musca domestica; 1 H, 5000 ppm) of 100% and a mortality at 500 ppm (Musca domestica; 24 h) of 97%. For the same compound, the mortality at 2500 ppm (Musca domestica; 24 h) was 100%, the mortality at 5000 ppm (Musca domestica; 24 h) was 100% and the mortality at 500 µg/mL [2, 5] was 0%. The mortality at 1000 µg/mL [2, 5] was 0%, the mortality at 500 µg/mL [2, 3] was 40% and the mortality at 1000 µg/mL [2, 3] was 100%. The mortality at 500 µg/mL [2, 4] was 40% and the mortality at 1000 µg/mL [2, 4] was 100%.
